What was measured:
Details in all cases: 72 h
Caco-2 [1] = experiment: cell viability relative to DMSO; higher = less toxic
Calu-3 [2] = experiment: as above
HepG2 [3] = experiment: as above
U2OS [4] = experiment: as above
Vero E6 [5] = experiment: as above
Caco-2 [6] = experiment: relative viability EC50 (midpoint between 100% and the lowest measured viability); higher = less toxic
Calu-3 [7] = experiment: as above
HepG2 [8] = experiment: as above
U2OS [9] = experiment: as above
Vero E6 [10] = experiment: as above
Caco-2 [11] = experiment: drug sensitivity score (DSS) for viability; higher = more toxic; extreme values may be limits of the assay
Calu-3 [12] = experiment: as above
HepG2 [13] = experiment: as above
U2OS [14] = experiment: as above
Vero E6 [15] = experiment: as above

SMILES | cell viability (Caco-2 [1]; 1 nM) | cell viability (Caco-2 [1]; 10 nM) | cell viability (Caco-2 [1]; 100 nM) | cell viability (Caco-2 [1]; 1000 nM) | cell viability (Caco-2 [1]; 10000 nM) | cell viability (Calu-3 [2]; 1 nM) | cell viability (Calu-3 [2]; 10 nM) | cell viability (Calu-3 [2]; 100 nM) | cell viability (Calu-3 [2]; 1000 nM) | cell viability (Calu-3 [2]; 10000 nM) | cell viability (HepG2 [3]; 1 nM) | cell viability (HepG2 [3]; 10 nM) | cell viability (HepG2 [3]; 100 nM) | cell viability (HepG2 [3]; 1000 nM) | cell viability (HepG2 [3]; 10000 nM) | cell viability (U2OS [4]; 1 nM) | cell viability (U2OS [4]; 10 nM) | cell viability (U2OS [4]; 100 nM) | cell viability (U2OS [4]; 1000 nM) | cell viability (U2OS [4]; 10000 nM) | cell viability (Vero E6 [5]; 1 nM) | cell viability (Vero E6 [5]; 10 nM) | cell viability (Vero E6 [5]; 100 nM) | cell viability (Vero E6 [5]; 1000 nM) | cell viability (Vero E6 [5]; 10000 nM) | relative viability EC50 (Caco-2 [6]) | relative viability EC50 (Calu-3 [7]) | relative viability EC50 (HepG2 [8]) | relative viability EC50 (U2OS [9]) | relative viability EC50 (Vero E6 [10]) | drug sensitivity score (Caco-2 [11]) | drug sensitivity score (Calu-3 [12]) | drug sensitivity score (HepG2 [13]) | drug sensitivity score (U2OS [14]) | drug sensitivity score (Vero E6 [15])
Cc1cc2c(C(N)=O)cccc2n1-c1nc2c(c(NCc3ccccc3)n1)COCC2 [CB-5083] | 97.8% | 92.8% | 103% | 50.1% | 13.6% | 101% | 94.3% | 104% | 47.1% | 1.7% | 107% | 95% | 104% | 2.8% | -0.2% | 100% | 102% | 98.4% | 87.1% | -0.3% | 98.8% | 103% | 102% | 1.1% | -0.4% | 0.883 µM | 0.941 µM | 0.36 µM | 2.12 µM | 0.338 µM | 10.8 | 11.9 | 17.3 | 7.7 | 17.6
N#Cc1cc2nc(O)c(O)nc2cc1[N+](=O)[O-] [CNQX] | 99% | 96.1% | 99.8% | 97.5% | 94.6% | 95.9% | 101% | 106% | 97% | 85.8% | 99.4% | 94.7% | 99.1% | 98.3% | 99.5% | 97.9% | 101% | 97.9% | 104% | 96.8% | 100% | 100% | 104% | 94.8% | 95.2% | > 10 µM | > 10 µM | > 10 µM | > 10 µM | > 10 µM | 0 | 0.4 | 0 | 0 | 0
O=C(O)C1=C(CSc2nnnn2CS(=O)(=O)O)CS[C@@H]2[C@H](NC(=O)[C@H](O)c3ccccc3)C(=O)N12 [Cefonicid (sodium)] | 97.8% | 102% | 93.4% | 97.7% | 102% | 95.7% | 97.2% | 97.9% | 96.6% | 95.8% | 103% | 100% | 92.2% | 103% | 97.7% | 95.1% | 99.2% | 94.3% | 101% | 94.4% | 99.9% | 98.9% | 102% | 99.1% | 99.5% | > 10 µM | > 10 µM | > 10 µM | > 10 µM | > 10 µM | 0 | 0 | 0 | 0 | 0
CCn1c(=O)[nH]c2cc(Cl)c(Cl)cc21 [DCEBIO] | 98.2% | 97.2% | 99.7% | 93% | 98.7% | 101% | 98.6% | 93.8% | 96.9% | 102% | 101% | 104% | 104% | 86.3% | 107% | 98% | 103% | 98.3% | 98.3% | 97% | 102% | 100% | 96% | 99.9% | 99.2% | > 10 µM | > 10 µM | > 10 µM | > 10 µM | > 10 µM | 0 | 0 | 0 | 0 | 0
